Measurements reported in US20260365670A1, “EGFR INHIBITORS AND USES THEREOF” (DIZAL (JIANGSU) PHARMACEUTICAL CO., LTD., priority 2022, published 2026).
Where two headings read alike, the source gives them in different places.

Columns and labels:
EGFR wild type = target: T1, EGFR wild type (Homo sapiens, UniProt P00533); assay: Inhibition of EGFR wild type biochemical enzymatic activity (HTRF); conditions: EGFR wild type, 1 mM ATP, 1 h at room temperature
T1 construct: purchased Carna Bio
How it was run: (§1)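 Each enzyme was first added to plates holding compound. The reaction was then started with ATP (1 mM) and peptide substrate (1 μM). It was stopped after 1 h at room temperature with EDTA detection reagents and read at 615/665 nm to derive IC50s.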

EGFR L858R = target: T2, EGFR L858R (Homo sapiens, UniProt P00533, L858R); assay: Inhibition of EGFR L858R biochemical enzymatic activity (HTRF); conditions: 1 mM ATP, 1 h at room temperature
T2 construct: purchased Carna Bio
T2 sequence (P00533 25-1210 L858R): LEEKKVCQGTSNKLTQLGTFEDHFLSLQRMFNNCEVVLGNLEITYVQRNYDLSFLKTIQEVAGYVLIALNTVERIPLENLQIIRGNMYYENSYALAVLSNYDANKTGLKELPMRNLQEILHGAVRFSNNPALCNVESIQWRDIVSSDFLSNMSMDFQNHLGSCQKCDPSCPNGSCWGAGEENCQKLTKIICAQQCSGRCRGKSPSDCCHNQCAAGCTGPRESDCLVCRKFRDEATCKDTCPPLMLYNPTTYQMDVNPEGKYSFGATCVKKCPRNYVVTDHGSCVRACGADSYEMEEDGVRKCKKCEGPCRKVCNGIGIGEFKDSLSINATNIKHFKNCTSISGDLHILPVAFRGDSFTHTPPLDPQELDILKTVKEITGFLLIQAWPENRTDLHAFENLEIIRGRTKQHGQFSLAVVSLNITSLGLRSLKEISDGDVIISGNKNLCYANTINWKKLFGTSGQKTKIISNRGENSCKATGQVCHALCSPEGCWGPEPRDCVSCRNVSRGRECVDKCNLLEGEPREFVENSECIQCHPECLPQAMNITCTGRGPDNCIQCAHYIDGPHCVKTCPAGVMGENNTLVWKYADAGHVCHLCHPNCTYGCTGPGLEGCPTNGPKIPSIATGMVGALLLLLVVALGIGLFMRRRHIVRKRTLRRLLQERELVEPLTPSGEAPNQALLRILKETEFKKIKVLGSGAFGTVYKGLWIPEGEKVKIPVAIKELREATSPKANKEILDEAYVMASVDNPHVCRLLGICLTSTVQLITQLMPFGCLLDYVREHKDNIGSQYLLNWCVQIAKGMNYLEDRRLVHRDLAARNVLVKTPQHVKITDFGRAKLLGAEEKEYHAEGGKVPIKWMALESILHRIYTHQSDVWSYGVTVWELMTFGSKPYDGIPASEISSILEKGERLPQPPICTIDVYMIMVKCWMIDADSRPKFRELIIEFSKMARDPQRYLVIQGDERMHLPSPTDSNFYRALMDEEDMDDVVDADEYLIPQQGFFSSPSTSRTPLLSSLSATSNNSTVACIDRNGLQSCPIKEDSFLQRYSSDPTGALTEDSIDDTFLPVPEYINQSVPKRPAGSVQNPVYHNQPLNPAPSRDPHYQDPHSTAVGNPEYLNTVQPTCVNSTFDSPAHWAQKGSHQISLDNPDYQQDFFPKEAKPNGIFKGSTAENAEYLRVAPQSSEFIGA
How it was run: as §1

EGFR L858R/T790M = target: T3, EGFR L858R/T790M (Homo sapiens, UniProt P00533, L858R/T790M); assay: Inhibition of EGFR L858R/T790M biochemical enzymatic activity (HTRF); conditions: EGFR L858R/T790M, 1 mM ATP, 1 h at room temperature
T3 construct: purchased Carna Bio
How it was run: as §1

EGFR Exon19Del = target: T4, EGFR Exon19Del (Homo sapiens, UniProt P00533, DEL746-750); assay: Inhibition of EGFR Exon19Del biochemical enzymatic activity (HTRF); conditions: 1 mM ATP, 1 h at room temperature
T4 construct: purchased Carna Bio
How it was run: as §1

EGFR Exon19Del/T790M = target: T5, EGFR Exon19Del/T790M (Homo sapiens, UniProt P00533, DEL746-750/T790M); assay: Inhibition of EGFR Exon19Del/T790M biochemical enzymatic activity (HTRF); conditions: EGFR Exon19Del/T790M, 1 mM ATP, 1 h at room temperature
T5 construct: purchased Carna Bio
How it was run: as §1

EGFR[T790M/C797S/L858R] = target: T6, EGFR[T790M/C797S/L858R] (Homo sapiens, UniProt P00533, C797S/L858R/T790M); assay: Inhibition of EGFR[T790M/C797S/L858R] biochemical enzymatic activity (HTRF); conditions: EGFR[T790M/C797S/L858R], 1 mM ATP, 1 h at room temperature
T6 construct: purchased Carna Bio
T6 sequence (P00533 25-1210 T790M/C797S/L858R): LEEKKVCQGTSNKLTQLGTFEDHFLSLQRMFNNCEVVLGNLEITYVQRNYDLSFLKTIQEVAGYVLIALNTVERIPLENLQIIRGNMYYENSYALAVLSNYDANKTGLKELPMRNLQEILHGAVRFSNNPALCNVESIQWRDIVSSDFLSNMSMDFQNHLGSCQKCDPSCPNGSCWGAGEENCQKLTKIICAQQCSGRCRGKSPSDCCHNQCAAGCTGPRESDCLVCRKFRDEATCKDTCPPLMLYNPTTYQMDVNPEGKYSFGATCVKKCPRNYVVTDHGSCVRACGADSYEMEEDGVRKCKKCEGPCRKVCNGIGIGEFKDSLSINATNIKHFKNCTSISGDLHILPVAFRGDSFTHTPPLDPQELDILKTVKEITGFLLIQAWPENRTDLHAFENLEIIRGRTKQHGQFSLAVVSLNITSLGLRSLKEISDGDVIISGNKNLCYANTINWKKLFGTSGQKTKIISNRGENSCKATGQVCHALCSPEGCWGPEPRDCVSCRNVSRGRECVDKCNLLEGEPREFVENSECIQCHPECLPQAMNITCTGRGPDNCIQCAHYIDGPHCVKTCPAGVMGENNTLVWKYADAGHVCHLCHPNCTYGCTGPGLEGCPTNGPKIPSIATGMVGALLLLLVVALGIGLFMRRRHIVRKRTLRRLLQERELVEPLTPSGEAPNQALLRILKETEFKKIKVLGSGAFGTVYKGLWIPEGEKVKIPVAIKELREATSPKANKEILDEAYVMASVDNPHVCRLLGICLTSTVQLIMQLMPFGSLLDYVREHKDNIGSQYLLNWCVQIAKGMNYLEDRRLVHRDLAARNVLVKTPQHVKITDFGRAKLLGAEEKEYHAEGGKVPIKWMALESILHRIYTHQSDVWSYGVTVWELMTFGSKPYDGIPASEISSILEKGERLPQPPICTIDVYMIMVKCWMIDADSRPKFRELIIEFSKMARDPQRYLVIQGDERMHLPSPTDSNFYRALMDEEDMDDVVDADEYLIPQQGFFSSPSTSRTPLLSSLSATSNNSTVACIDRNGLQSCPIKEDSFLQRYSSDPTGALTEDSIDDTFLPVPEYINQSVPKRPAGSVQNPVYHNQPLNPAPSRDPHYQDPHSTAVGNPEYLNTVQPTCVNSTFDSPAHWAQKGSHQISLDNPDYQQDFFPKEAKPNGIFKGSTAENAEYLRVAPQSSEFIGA
How it was run: as §1

[1] = target: T7, EGFR[T790M/C797S/d746-750] (Homo sapiens, UniProt P00533, C797S/DEL746-750/T790M); assay: Inhibition of EGFR[T790M/C797S/d746-750] biochemical enzymatic activity (HTRF); conditions: 1 mM ATP, 1 h at room temperature
T7 construct: purchased Carna Bio
T7 sequence (P00533 with tags, fused parts or gaps DEL746-750/T790M/C797S limits assumed): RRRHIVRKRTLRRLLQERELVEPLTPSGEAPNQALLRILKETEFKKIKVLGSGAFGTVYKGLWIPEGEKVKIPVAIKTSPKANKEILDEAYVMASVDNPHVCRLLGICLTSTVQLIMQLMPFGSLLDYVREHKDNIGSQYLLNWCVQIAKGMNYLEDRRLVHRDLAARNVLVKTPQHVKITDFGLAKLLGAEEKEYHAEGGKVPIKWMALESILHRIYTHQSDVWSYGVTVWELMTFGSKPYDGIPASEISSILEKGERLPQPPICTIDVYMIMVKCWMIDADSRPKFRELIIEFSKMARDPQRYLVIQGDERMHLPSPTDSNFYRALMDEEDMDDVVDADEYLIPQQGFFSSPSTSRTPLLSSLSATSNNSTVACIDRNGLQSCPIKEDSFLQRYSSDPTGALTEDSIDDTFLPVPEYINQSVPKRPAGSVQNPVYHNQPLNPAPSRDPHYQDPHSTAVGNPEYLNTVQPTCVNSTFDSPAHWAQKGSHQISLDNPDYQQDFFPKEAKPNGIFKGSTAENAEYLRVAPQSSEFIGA
How it was run: as §1

EGFR (d746-750 C797S) = target: T8, EGFR (d746-750 C797S) (Homo sapiens, UniProt P00533, C797S/DEL746-750); assay: Inhibition of EGFR (d746-750 C797S) biochemical enzymatic activity (HTRF); conditions: EGFR (d746-750 C797S), 1 mM ATP, 1 h at room temperature
T8 construct: purchased signalchem
T8 sequence (P00533 with tags, fused parts or gaps DEL746-750/C797S limits assumed): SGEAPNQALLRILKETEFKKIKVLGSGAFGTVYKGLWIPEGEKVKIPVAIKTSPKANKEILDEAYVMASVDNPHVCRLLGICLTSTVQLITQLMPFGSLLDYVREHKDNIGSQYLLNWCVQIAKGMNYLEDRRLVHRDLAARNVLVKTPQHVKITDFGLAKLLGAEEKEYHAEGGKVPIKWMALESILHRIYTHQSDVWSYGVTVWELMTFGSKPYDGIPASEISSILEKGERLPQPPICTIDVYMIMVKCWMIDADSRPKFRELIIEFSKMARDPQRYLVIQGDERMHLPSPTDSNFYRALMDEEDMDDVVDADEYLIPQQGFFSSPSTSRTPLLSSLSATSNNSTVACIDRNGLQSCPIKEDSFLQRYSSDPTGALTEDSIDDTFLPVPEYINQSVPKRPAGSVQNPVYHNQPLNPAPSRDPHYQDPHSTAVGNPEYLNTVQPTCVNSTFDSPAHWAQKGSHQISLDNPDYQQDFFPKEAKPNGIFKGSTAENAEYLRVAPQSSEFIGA
How it was run: as §1

EGFR (C797S L858R) = target: T9, EGFR (C797S L858R) (Homo sapiens, UniProt P00533, C797S/L858R); assay: Inhibition of EGFR (C797S L858R) biochemical enzymatic activity (HTRF); conditions: EGFR (C797S L858R), 1 mM ATP, 1 h at room temperature
T9 construct: purchased signalchem
T9 sequence (P00533 25-1210 C797S/L858R): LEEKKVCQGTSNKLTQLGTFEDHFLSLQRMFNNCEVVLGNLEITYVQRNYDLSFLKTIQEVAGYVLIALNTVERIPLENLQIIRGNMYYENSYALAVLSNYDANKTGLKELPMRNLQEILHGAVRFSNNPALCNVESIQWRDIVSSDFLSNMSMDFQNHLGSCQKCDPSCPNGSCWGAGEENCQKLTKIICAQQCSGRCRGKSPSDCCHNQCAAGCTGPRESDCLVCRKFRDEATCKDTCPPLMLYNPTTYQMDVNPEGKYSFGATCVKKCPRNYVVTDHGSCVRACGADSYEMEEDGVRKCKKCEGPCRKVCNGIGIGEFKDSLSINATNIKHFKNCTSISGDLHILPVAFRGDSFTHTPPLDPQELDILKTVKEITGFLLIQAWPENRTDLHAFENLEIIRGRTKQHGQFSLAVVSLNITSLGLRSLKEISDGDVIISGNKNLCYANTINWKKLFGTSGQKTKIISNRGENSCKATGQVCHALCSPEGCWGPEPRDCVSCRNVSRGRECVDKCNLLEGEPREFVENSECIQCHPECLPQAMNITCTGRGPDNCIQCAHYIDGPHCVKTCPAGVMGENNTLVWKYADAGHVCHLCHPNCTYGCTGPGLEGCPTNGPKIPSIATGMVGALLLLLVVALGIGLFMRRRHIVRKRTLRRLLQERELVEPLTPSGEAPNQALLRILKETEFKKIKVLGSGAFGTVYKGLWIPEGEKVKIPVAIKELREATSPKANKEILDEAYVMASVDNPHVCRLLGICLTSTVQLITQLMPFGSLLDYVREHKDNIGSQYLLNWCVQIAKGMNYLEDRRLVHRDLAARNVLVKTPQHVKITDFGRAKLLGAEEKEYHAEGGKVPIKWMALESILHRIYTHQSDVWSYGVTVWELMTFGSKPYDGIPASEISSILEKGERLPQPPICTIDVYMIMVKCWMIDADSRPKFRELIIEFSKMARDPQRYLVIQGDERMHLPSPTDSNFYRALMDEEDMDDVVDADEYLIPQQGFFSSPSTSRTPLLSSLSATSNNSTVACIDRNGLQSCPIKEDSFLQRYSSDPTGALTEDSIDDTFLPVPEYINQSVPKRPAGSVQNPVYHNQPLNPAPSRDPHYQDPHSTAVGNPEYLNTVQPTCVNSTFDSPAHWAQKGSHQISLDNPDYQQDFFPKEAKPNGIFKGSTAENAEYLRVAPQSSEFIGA
How it was run: as §1

[2] = tested on: Ba/F3 cells expressing EGFR mutations; assay: Cell proliferation assay, Ba/F3 cells expressing EGFR mutations (CellTiter-Glo, 72 hours); type: cell-based
How it was run: (§2)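 Ba/F3 cells (5000/well) and PC-9 cells (500/well, RPMI1640 with 10% FBS) were plated overnight and then dosed with a compound concentration series. Viable cells were read at day 0 (G0) and after treatment (G3). GI50 came from curve fits of G0-corrected proliferation relative to DMSO.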

PC-9 = assay: Cell proliferation assay, PC-9 cells (CellTiter-Glo, 72 hours); type: cell-based; conditions: PC9 cells, read-out: GI50 PC9
How it was run: as §2

A-431 = assay: Cell proliferation assay, A-431 cells (GI50, Table 6); type: cell-based; conditions: Homo sapiens, A-431, A-431 cells
[3] = BaF3 cells, EGFR DEL19 - C797S, read-out: GI50 DEL19 - C797S/BaF3
[4] = BaF3 cells, EGFR DEL19 - T790-C797S, read-out: GI50 DEL19 - T790-C797S/BaF3
[5] = BaF3 cells, EGFR L858R - C797S, read-out: GI50 L858R - C797S/BaF3
[6] = BaF3 cells, EGFR L858R - T790-C797S, read-out: GI50 L858R - T790-C797S/BaF3
[7] = BaF3 cells, EGFR L858R - T790M, read-out: GI50 L858R - T790M/BaF3
[8] = BaF3 cells, EGFR L858R, read-out: GI50 L858R/BaF3
[9] = EGFR DEL19 - T790M, read-out: GI50 DEL19 - T790M
[10] = EGFR Exon19Del, read-out: IC50 @Del19
[11] = read-out: IC50 @T790M- C797S - L858R
[12] = EGFR[T790M/C797S/d746-750], read-out: IC50 @T790M - C797S - Del19

SMILES: Cc1cc2cc(n1)-c1cnn(C)c1OCCN1CC3CCC(C3)(C1)n1c(nc3ccc(N4CCC(N(C)C)CC4)cc31)NC2=O (single isomer, unassigned) [Example B40B, 5-[4-(dimethylamino)piperidin-1-yl]-15,21-dimethyl-23-oxa-2,9,11,16,20,21,26-heptaazaheptacyclo[24.4.1.1^{1,28}.1^{13,17}.0^{2,10}.0^{3,8}.0^{18,22}]tritriaconta-3,5,7,9,13,15,17(33),18(22),19-nonaen-12-one]
- IC50 (EGFR wild type; IC50 @WT): 100 nM
- IC50 (EGFR L858R; IC50 @L858R): 15 nM
- IC50 (EGFR L858R/T790M; IC50 @L858R-T790M): 3.3 nM
- IC50 (EGFR Exon19Del; IC50 @Del19, EGFR Exon19Del): 4.5 nM
- IC50 (EGFR Exon19Del/T790M; IC50 @Del19-T790M): 4.7 nM
- IC50 (EGFR[T790M/C797S/L858R]; IC50 @T790M- C797S - L858R): 2.4 nM
- IC50 ([1]; IC50 @T790M - C797S - Del19, EGFR[T790M/C797S/d746-750]): 2.3 nM
- IC50 (EGFR (d746-750 C797S); IC50 @Del19-C797S): 2.2 nM
- IC50 (EGFR (C797S L858R); IC50 @L858-C797S): 4.4 nM
- GI50 [2, 3]: 2 nM
- GI50 [2, 4]: 2 nM
- GI50 [2, 5]: 6 nM
- GI50 [2, 6]: 2 nM
- GI50 [2, 7]: 2 nM
- GI50 [2, 8]: 8 nM
- GI50 [2, 9]: 2 nM
- GI50 (PC-9): 9 nM
- GI50 (A-431): 333 nM

SMILES: Cc1cc2cc(n1)-c1cnn(C)c1OCCN1CC3CCC(C3)(C1)n1c(nc3ccc(N(C)CCN(C)C)cc31)NC2=O (single isomer, unassigned) [Example B47B]
- IC50 (EGFR wild type; read-out: IC50 @WT): 805 nM
- IC50 (EGFR L858R; read-out: IC50 @L858R): 59 nM
- IC50 (EGFR L858R/T790M; read-out: IC50 @L858R-T790M): 3.5 nM
- IC50 (EGFR Exon19Del; [10]): 5.8 nM
- IC50 (EGFR Exon19Del/T790M; read-out: IC50 @Del19-T790M): 2.8 nM
- IC50 (EGFR[T790M/C797S/L858R]; [11]): 1.5 nM
- IC50 [1, 12]: 1.9 nM
- IC50 (EGFR (d746-750 C797S); read-out: IC50 @Del19-C797S): 2.8 nM
- IC50 (EGFR (C797S L858R); read-out: IC50 @L858-C797S): 14 nM
- GI50 [2, 3]: 2 nM
- GI50 [2, 4]: 2 nM
- GI50 [2, 5]: 9 nM
- GI50 [2, 6]: 2 nM
- GI50 [2, 7]: 2 nM
- GI50 [2, 8]: 11 nM
- GI50 [2, 9]: 2 nM
- GI50 (PC-9): 12 nM
- GI50 (A-431): 378 nM

SMILES: Cc1cc2cc(n1)-c1cnn(C)c1OCCN1CC3CCC(CC3)(C1)n1c(nc3ccc(N4CCC5(CN(C)C5)C4)cc31)NC2=O [Example B37]
- IC50 (EGFR wild type; read-out: IC50 @WT): > 5000 nM
- IC50 (EGFR L858R; read-out: IC50 @L858R): 194 nM
- IC50 (EGFR L858R/T790M; read-out: IC50 @L858R-T790M): 13 nM
- IC50 (EGFR Exon19Del; [10]): 19 nM
- IC50 (EGFR Exon19Del/T790M; read-out: IC50 @Del19-T790M): 9 nM
- IC50 (EGFR[T790M/C797S/L858R]; [11]): 5.6 nM
- IC50 [1, 12]: 3.9 nM
- IC50 (EGFR (d746-750 C797S); read-out: IC50 @Del19-C797S): 13 nM
- IC50 (EGFR (C797S L858R); read-out: IC50 @L858-C797S): 99 nM
- GI50 ([2]; Mus musculus, BaF3, 72 h, BaF3 cells, EGFR DEL19 - C797S, read-out: GI50 DEL19 - C797S/BaF3): 12 nM
- GI50 ([2]; Mus musculus, BaF3, 72 h, BaF3 cells, EGFR DEL19 - T790-C797S, read-out: GI50 DEL19 - T790-C797S/BaF3): 5 nM
- GI50 ([2]; Mus musculus, BaF3, 72 h, BaF3 cells, EGFR L858R - C797S, read-out: GI50 L858R - C797S/BaF3): 73 nM
- GI50 ([2]; Mus musculus, BaF3, 72 h, BaF3 cells, EGFR L858R - T790-C797S, read-out: GI50 L858R - T790-C797S/BaF3): 9 nM
- GI50 ([2]; Mus musculus, BaF3, 72 h, BaF3 cells, EGFR L858R - T790M, read-out: GI50 L858R - T790M/BaF3): 28 nM
- GI50 ([2]; Mus musculus, BaF3, 72 h, BaF3 cells, EGFR L858R, read-out: GI50 L858R/BaF3): 74 nM
- GI50 ([2]; Mus musculus, BaF3, 72 h, EGFR DEL19 - T790M, read-out: GI50 DEL19 - T790M): 5 nM
- GI50 (PC-9; Homo sapiens, PC-9, 72 h): 106 nM
- GI50 (A-431): 5040 nM
